Measured values from ChEMBL document CHEMBL1201862, “PubChem BioAssay data set” (2004).
Active and inactive are the calls of the source.

Legend:
Large T antigen = Large T antigen (Simian virus 40, UniProt P03070); type: functional, Betapolyomavirus macacae;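 note: Confirmatory-stage PubChem screen for compounds that inhibit SV40 T antigen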
[1] = biological target: Induced myeloid leukemia cell differentiation protein Mcl-1 (Homo sapiens, UniProt Q07820); type: functional
[2] = biological target: Dual specificity protein phosphatase 3 (Homo sapiens, UniProt P51452); assay: SAR VHR1 Fluorescent Assay for In Vitro dose response studies. [Related pubchem assays (depositor defined):AID1654, AID1661, AID1878, AID1992, AID2004, AID2070, AID2085]; type: functional
Sequence of Dual specificity protein phosphatase 3 (P51452 whole entry): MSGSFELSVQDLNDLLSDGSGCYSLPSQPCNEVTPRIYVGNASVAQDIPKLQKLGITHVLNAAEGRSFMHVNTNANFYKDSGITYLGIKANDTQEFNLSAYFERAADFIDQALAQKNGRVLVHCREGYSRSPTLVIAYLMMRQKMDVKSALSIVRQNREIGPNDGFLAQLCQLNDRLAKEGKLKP

Salmon testes DNA = assay: DNA intercalators displacing acridine orange, dose response, artefact control for KSHV LANA DNA-binding inhibitor project, biochemical, fluorescence polarization, cherry-picked samples, set 2 (AID 504727); design: species or system Salmonidae
ORF 73 = biological target: T1, ORF 73 (Human herpesvirus 8, UniProt O40947); assay: inhibitors of C-LANA binding to LBS DNA, dose response, biochemical, fluorescence polarization, cherry-picked samples (AID 504725); design: species or system Human gammaherpesvirus 8;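 note: fluorescence polarization of a labeled DNA duplex reporting LANA DNA binding; potency is for inhibitors that block LANA binding to the DNA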
T1 sequence (O40947 whole entry): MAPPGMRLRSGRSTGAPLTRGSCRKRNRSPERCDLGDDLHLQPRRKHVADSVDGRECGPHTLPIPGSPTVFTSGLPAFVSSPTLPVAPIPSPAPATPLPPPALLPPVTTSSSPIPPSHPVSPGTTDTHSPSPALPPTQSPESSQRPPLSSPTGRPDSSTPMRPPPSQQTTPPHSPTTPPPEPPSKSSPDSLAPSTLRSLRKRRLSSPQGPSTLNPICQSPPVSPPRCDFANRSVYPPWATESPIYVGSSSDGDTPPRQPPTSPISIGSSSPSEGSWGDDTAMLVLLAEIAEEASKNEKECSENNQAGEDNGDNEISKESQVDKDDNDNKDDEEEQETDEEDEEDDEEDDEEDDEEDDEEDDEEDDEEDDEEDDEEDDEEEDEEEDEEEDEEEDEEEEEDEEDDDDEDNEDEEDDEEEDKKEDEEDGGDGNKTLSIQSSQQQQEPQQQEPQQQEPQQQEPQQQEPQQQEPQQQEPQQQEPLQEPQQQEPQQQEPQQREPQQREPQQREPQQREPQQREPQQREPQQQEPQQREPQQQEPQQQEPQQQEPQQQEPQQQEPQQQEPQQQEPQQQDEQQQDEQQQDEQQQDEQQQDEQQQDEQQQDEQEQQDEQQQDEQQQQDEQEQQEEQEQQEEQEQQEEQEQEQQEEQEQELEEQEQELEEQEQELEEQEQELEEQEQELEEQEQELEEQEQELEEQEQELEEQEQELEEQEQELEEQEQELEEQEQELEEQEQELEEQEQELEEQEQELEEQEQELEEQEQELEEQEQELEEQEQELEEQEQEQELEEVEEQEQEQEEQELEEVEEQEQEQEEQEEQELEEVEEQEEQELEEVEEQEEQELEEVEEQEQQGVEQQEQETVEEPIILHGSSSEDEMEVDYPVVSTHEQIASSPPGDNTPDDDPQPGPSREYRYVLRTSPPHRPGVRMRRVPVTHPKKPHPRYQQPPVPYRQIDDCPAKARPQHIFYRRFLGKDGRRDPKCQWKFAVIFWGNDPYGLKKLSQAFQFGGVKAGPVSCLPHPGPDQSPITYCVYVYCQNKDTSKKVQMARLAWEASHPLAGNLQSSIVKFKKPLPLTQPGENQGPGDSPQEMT

[3] = biological target: T2, Tyrosine-protein phosphatase non-receptor type 7 (Homo sapiens, UniProt P35236); assay: redox-dependent HePTP inhibition, mechanism study, biochemical, fluorescence (AID 2068); type: functional
T2 sequence (P35236 whole entry): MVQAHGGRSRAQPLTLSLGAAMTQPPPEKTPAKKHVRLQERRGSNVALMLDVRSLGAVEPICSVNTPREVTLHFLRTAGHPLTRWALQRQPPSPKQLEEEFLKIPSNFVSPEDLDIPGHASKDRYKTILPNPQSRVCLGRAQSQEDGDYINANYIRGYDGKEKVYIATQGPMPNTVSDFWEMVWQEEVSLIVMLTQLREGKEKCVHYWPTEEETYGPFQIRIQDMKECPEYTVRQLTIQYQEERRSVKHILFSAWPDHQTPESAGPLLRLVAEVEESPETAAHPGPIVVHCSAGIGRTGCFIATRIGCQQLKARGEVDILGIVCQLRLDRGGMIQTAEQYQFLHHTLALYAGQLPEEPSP

[4] = biological target: Eukaryotic translation initiation factor 4E (Mus musculus, UniProt P63073); assay: eIF4E–eIF4G protein interaction inhibitors, dose response, biochemical, TR-FRET (AID 855); type: functional;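 note: potency for disrupting eIF4E binding to eIF4GI seen as loss of FRET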
Sequence of Eukaryotic translation initiation factor 4E (P63073 whole entry): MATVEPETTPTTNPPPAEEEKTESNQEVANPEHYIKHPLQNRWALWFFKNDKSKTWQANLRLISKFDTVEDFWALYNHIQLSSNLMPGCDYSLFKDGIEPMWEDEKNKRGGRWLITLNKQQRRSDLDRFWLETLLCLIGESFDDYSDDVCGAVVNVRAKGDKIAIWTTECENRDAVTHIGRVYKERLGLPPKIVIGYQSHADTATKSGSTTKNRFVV

[5] = biological target: T3, Apoptotic protease-activating factor 1 (Homo sapiens, UniProt O14727); type: functional
T3 sequence (O14727 whole entry): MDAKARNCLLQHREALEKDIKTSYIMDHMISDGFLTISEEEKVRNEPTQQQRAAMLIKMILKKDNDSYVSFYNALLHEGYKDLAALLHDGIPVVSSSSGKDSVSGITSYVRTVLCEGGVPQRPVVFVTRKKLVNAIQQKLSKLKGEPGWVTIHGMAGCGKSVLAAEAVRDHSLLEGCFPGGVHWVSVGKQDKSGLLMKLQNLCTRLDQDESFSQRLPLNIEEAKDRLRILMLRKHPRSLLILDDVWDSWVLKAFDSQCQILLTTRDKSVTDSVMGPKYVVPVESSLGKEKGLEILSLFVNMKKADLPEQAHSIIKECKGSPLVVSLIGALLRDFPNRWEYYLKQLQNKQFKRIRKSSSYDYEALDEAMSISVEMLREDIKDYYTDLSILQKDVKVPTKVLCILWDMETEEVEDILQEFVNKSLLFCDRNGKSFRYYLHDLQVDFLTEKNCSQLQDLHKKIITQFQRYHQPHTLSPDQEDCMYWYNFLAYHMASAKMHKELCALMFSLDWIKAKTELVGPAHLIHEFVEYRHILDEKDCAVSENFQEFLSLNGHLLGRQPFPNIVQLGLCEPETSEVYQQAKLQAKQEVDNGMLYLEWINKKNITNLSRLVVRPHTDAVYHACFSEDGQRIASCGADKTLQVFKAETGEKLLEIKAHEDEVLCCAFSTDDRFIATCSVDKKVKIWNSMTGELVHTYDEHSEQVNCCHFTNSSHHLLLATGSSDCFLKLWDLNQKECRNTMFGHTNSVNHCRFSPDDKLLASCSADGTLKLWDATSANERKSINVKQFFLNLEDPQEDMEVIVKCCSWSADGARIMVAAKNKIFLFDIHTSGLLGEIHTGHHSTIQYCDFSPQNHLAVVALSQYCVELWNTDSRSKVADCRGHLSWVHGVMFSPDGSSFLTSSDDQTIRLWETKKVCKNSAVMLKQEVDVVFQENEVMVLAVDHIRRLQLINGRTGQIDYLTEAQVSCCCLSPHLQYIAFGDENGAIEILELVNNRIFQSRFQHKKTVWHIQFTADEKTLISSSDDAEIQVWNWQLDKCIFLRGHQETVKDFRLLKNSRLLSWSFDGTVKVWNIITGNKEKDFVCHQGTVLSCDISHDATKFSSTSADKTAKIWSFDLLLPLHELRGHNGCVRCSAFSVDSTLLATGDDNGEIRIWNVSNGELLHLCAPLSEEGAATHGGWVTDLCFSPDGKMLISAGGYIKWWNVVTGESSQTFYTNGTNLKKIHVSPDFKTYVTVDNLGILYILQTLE

Genome polyprotein = Genome polyprotein (dengue virus type 2, UniProt P29990); assay: Dengue-2 NS5 methyltransferase inhibitors, primary screen, biochemical, confirmation dose response (AID 588689); type: functional
Sequence of Genome polyprotein (P29990 2492-3391 limits assumed): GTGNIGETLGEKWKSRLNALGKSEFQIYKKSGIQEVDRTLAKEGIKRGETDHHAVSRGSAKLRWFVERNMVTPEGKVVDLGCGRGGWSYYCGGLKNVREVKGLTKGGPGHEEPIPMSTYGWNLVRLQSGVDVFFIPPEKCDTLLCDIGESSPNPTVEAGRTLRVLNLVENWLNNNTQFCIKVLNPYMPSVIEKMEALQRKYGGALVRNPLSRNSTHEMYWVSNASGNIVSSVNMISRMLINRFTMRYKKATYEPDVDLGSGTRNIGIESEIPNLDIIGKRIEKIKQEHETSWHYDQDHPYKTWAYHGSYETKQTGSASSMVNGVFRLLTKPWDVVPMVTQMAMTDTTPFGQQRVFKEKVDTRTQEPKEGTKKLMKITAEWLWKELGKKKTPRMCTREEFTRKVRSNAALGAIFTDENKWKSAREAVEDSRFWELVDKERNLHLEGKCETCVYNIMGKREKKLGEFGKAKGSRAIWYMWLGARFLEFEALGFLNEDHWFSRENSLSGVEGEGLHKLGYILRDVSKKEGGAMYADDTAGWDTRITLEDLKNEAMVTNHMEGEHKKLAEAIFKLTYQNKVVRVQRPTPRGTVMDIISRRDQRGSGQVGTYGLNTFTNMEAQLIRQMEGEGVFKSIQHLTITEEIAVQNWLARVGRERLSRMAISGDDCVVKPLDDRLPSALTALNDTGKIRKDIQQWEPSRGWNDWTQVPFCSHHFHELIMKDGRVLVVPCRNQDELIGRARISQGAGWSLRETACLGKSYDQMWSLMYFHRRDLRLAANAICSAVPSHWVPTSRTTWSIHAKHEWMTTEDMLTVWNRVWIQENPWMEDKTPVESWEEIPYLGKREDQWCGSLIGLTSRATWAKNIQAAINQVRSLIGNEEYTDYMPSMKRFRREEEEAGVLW

[6] = biological target: T4, Polyadenylate-binding protein 1 (Homo sapiens, UniProt P11940); assay: PABP1 MLLE–PAM2 interaction inhibitors, dose response, miRNA deadenylation inhibitor project, biochemical, fluorescence polarization, Cy5-PAM2 peptide, secondary (AID 602260); type: functional; conditions: read-out: IC50_Mean
T4 sequence (P11940 whole entry): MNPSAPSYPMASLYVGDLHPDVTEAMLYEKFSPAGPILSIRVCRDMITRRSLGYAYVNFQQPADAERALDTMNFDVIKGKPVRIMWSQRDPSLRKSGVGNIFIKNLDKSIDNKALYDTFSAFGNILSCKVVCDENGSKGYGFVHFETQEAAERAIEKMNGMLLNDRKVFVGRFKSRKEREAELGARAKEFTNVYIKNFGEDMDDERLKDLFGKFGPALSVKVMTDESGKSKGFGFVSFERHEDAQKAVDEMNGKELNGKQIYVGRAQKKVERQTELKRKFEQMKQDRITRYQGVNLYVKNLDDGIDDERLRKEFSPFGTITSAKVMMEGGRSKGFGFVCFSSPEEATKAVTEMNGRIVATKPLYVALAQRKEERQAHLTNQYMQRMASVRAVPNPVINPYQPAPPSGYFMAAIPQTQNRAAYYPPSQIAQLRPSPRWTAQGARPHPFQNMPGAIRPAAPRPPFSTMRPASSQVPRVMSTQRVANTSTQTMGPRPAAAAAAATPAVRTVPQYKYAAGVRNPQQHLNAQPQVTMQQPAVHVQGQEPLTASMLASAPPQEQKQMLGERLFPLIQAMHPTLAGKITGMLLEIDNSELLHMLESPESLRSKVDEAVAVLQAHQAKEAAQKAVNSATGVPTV

[7] = biological target: T4, Polyadenylate-binding protein 1; assay: PABP1 MLLE–PAM2 binding inhibitor potency, dose response, biochemical, fluorescence polarization, FITC-PAM2 peptide (AID 602259); type: functional; conditions: read-out: IC50_Mean
Albumin = Albumin (Bos taurus, UniProt P02769); assay: Counterscreen for inhibitors of T-cell receptor (TCR)-CD3 interaction: Fluorescence-based biochemical high throughput dose response assay to identify inhibitors of T-cell receptor (TCR)-CD3 interaction using a TAMRA-labeled BSA probe.; type: functional
Sequence of Albumin (P02769 whole entry): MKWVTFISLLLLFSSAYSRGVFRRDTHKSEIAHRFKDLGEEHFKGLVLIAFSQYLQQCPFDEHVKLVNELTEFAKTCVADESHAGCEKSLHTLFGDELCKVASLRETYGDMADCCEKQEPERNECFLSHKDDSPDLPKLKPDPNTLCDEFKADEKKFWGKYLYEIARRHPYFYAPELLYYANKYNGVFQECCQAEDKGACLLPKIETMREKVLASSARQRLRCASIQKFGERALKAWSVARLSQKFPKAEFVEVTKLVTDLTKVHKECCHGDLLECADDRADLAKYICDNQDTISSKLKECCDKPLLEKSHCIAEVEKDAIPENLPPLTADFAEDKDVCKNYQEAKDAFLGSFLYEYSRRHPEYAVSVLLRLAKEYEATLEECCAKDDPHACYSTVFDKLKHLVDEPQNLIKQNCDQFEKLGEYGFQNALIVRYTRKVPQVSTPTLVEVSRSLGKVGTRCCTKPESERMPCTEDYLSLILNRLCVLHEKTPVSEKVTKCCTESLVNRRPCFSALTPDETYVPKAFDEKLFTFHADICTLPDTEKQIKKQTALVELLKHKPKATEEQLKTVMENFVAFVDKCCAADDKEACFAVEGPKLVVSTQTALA

[8] = biological target: Glutathione-S-transferase (Schistosoma japonicum, UniProt Q26513); assay: biotin-GST/anti-GST TR-FRET signal inhibitors, dose response, artefact control for Vif-APOBEC3G degradation inhibitor project, biochemical (AID 1117362); type: functional
Sequence of Glutathione-S-transferase (Q26513 whole entry, the tested form may be a part): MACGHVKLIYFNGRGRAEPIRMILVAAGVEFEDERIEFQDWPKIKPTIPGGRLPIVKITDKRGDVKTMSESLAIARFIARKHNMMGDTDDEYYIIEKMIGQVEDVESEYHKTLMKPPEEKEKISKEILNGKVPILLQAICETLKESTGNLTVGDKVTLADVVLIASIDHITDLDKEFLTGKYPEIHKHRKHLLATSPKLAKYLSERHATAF

[9] = biological target: T5, Nucleotide-binding oligomerization domain-containing protein 1 (Homo sapiens, UniProt Q9Y239); assay: SAR analysis of NF-kappaB dependent luciferase using DAP as an inducer - Set 2. [Related pubchem assays (depositor defined):AID1566, AID1575, AID1578, AID1579, AID1849, AID1852, AID2264]; type: functional
T5 sequence (Q9Y239 whole entry): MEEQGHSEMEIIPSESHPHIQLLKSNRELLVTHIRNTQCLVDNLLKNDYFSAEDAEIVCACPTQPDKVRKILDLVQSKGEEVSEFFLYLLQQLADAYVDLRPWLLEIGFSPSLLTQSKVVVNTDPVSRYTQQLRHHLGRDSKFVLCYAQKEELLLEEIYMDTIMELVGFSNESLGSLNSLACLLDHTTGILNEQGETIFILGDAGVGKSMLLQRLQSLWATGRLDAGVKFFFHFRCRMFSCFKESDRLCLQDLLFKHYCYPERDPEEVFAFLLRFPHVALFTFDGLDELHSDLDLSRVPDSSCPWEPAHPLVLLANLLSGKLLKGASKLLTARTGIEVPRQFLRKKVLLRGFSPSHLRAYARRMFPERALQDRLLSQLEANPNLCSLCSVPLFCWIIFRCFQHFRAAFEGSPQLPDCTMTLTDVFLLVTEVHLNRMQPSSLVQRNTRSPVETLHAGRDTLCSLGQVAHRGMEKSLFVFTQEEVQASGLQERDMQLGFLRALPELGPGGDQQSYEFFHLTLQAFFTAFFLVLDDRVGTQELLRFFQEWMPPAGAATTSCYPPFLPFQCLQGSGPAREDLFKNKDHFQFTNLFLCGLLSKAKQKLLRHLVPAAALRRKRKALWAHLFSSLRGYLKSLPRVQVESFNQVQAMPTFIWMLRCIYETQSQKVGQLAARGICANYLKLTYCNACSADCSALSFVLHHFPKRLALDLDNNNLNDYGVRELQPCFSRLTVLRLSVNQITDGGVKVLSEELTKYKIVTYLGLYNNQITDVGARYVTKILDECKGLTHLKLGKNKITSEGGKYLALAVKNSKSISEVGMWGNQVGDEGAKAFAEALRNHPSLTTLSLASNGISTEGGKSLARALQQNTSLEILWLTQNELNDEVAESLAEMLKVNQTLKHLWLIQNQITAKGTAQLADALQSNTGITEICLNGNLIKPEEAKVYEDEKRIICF

Interleukin-8 [10] = biological target: T6, Interleukin-8 (Homo sapiens, UniProt P10145); assay: SAR analysis of Tumor necrosis factor alpha (TNF-alpha) induced IL-8 secretion in MCF-7/NOD1 cells - Set 2. [Related pubchem assays (depositor defined):AID1575, AID2250, AID2260]; type: functional, cell-based
T6 sequence (P10145 whole entry): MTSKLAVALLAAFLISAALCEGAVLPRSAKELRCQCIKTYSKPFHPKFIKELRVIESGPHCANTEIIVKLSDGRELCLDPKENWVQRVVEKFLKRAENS

Interleukin-8 [11] = biological target: T6, Interleukin-8; assay: SAR analysis of GM-Tri-DAP induced IL-8 secretion in MCF-7/NOD1 cells - Set 2. [Related pubchem assays (depositor defined):AID1575, AID1578, AID2333]; type: functional, cell-based
[12] = biological target: Nucleotide-binding oligomerization domain-containing protein 2 (Homo sapiens, UniProt Q9HC29); assay: NOD2 inhibitors, SAR follow-up, set 2 (AID 2475); type: functional
Sequence of Nucleotide-binding oligomerization domain-containing protein 2 (Q9HC29 whole entry, the tested form may be a part): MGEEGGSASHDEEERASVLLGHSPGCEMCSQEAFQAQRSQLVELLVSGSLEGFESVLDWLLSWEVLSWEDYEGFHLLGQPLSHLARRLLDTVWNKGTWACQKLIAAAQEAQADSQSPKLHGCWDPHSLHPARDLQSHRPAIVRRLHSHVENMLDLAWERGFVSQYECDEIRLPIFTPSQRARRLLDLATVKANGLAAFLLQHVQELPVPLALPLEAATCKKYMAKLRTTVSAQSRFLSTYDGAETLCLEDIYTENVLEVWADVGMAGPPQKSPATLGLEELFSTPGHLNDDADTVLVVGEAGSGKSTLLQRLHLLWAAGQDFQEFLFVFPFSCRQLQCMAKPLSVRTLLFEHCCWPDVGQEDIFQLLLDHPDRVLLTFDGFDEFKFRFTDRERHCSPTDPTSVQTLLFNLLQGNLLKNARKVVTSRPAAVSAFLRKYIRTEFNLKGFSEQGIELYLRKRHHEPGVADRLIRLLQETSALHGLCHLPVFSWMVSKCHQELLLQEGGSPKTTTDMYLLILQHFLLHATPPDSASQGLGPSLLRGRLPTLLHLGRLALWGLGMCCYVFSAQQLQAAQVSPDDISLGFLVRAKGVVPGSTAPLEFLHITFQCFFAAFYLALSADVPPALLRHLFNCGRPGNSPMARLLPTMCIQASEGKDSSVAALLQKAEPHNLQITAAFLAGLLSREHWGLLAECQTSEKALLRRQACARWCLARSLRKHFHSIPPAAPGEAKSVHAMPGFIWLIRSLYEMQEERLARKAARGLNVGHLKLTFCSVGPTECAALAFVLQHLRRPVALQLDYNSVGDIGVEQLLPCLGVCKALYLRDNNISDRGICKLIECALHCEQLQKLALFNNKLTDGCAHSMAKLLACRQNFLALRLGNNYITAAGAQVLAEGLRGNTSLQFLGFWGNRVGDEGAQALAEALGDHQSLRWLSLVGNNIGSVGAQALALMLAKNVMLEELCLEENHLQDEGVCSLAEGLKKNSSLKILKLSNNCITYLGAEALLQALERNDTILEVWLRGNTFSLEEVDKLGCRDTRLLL

HEK293 [13] = assay: SAR analysis of compounds that are cytotoxic to HEK293 - Set 2. [Related pubchem assays (depositor defined):AID1575, AID1578, AID1849, AID2001, AID2333, AID2334, AID2335, AID2337, AID2800]; type: functional, cell-based; conditions: Homo sapiens
[14] = biological target: T5, Nucleotide-binding oligomerization domain-containing protein 1; assay: SAR analysis of compounds that inhibit NOD1 - Set 2. [Related pubchem assays (depositor defined):AID1566, AID1575, AID1578, AID1849, AID1852, AID2333, AID2335, AID2798]; type: functional
[15] = biological target: T5, Nucleotide-binding oligomerization domain-containing protein 1; assay: SAR analysis of compounds that inhibit NOD1 - Set 3. [Related pubchem assays (depositor defined):AID1566, AID1575, AID1578, AID1849, AID1852, AID2333, AID2335, AID2466]; type: functional
HEK293 [16] = assay: SAR analysis of compounds that are cytotoxic to HEK293 - Set 3. [Related pubchem assays (depositor defined):AID1575, AID1578, AID1848, AID1849, AID2001, AID2333, AID2334, AID2335, AID2337, AID2469]; type: functional, cell-based; conditions: Homo sapiens

Sequence of Large T antigen (P03070 whole entry): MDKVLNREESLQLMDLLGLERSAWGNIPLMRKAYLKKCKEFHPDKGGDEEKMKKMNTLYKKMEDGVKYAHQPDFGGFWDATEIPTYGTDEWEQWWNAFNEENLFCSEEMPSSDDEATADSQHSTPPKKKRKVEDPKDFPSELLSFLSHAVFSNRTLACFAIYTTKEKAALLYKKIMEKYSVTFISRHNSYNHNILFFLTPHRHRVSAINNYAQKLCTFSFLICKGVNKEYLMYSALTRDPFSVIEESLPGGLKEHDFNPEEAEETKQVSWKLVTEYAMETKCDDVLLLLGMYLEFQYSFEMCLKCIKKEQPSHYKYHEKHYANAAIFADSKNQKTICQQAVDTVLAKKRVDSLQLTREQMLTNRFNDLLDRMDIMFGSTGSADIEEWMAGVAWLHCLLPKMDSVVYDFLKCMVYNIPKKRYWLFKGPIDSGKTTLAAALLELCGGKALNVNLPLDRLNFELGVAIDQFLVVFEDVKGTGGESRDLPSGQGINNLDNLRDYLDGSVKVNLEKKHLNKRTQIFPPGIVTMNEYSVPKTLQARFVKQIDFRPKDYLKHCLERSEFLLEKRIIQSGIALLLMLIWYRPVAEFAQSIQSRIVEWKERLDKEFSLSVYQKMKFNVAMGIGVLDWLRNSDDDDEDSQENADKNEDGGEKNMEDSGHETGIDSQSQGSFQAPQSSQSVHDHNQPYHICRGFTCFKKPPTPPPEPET
Sequence of Induced myeloid leukemia cell differentiation protein Mcl-1 (Q07820 whole entry): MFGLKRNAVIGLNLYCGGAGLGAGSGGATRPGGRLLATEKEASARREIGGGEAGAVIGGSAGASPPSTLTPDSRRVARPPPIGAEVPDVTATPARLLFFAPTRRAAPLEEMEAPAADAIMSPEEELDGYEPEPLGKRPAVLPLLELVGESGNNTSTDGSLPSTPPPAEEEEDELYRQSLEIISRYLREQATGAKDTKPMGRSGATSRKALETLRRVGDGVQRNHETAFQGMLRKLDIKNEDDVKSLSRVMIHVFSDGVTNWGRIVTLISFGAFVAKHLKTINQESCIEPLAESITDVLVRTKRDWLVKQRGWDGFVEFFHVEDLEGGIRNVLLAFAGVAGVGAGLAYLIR

COCCNC(=O)Nc1ccc2nc(-c3ccco3)c(-c3ccco3)nc2c1
IC50 (Large T antigen): > 100 µM (active) | IC50 [1]: 0.831 µM (active) | IC50 [2]: 0.492 µM (active) | AC50 (Salmon testes DNA): 63.1 µM (active) | AC50 (ORF 73): 23.5 µM (active) | IC50 [3]: 0.198 µM (active) | IC50 [4]: 50 µM (inactive) | IC50 [5]: 52 µM (active) | IC50 (Genome polyprotein): 27.9 µM (active) | IC50 [6]: > 66 µM (inactive) | IC50 [7]: 39.2 µM (inactive) | IC50 (Albumin): > 94.1 µM (inactive) | IC50 [8]: > 100 µM (active)

CCCCn1c(SCC(=O)Nc2nnc(CC)s2)nc2c1c(=O)n(C)c(=O)n2C
IC50 [9]: > 25 µM (inactive) | IC50 (Interleukin-8 [10]): > 25 µM (inactive) | IC50 (Interleukin-8 [11]): > 25 µM (inactive) | IC50 [12]: 7.19 µM (active) | IC50 (HEK293 [13]): > 20 µM (inactive) | IC50 [14]: 7.92 µM (active) | IC50 [15]: 9.39 µM (active) | IC50 (HEK293 [16]): > 20 µM (inactive)
